# Test results published in PubChem BioAssay (NCI).
# Values joined by “and” are separate entries in the source; they are usually repeats but may differ in a detail not shown here. Equal entries are not always repeated.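 Five concentrations, 48 hours, 96-well plates. Abbreviation: GI50, concentration required for 50% inhibition of growth. TGI marks complete inhibition of growth.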
# Tests used:
# Assay in all cases: NCI-60 cell line screen, 48 h
# MDA-MB-435 = test system: MDA-MB-435
# K-562 leukemia = test system: K-562 leukemia
# CCRF-CEM leukemia = test system: CCRF-CEM leukemia
# BT-549 breast = test system: BT-549 breast
# OVCAR-8 ovarian = test system: OVCAR-8 ovarian
# SNB-75 CNS = test system: SNB-75 CNS
# UACC-257 melanoma = test system: UACC-257 melanoma
# SK-MEL-2 melanoma = test system: SK-MEL-2 melanoma
# HCT-116 colon = test system: HCT-116 colon
# DU-145 prostate = test system: DU-145 prostate
# M14 melanoma = test system: M14 melanoma
# OVCAR-3 ovarian = test system: OVCAR-3 ovarian
# HCC-2998 colon = test system: HCC-2998 colon
# CAKI-1 renal = test system: CAKI-1 renal
# A498 renal = test system: A498 renal
Structure (SMILES),TGI (MDA-MB-435) [µM],TGI (K-562 leukemia) [µM],TGI (CCRF-CEM leukemia) [µM],TGI (BT-549 breast) [µM],TGI (OVCAR-8 ovarian) [µM],TGI (SNB-75 CNS) [µM],TGI (UACC-257 melanoma) [µM],TGI (SK-MEL-2 melanoma) [µM],TGI (HCT-116 colon) [µM],TGI (DU-145 prostate) [µM],TGI (M14 melanoma) [µM],TGI (OVCAR-3 ovarian) [µM],TGI (HCC-2998 colon),TGI (CAKI-1 renal) [µM],TGI (A498 renal) [µM],GI50 (UACC-257 melanoma),GI50 (OVCAR-3 ovarian),GI50 (HCC-2998 colon)
Cc1ccc(NC(=O)c2cc(S(=O)(=O)N3CCNNC3=O)c(S)cc2Cl)cc1,> 100,> 100,> 100,87.6,> 100,> 100,> 100,> 100,> 100,> 100,> 100,> 100,> 100 µM,> 100,–,–,–,–
COc1ccc2[nH]c3c(c2c1)CCc1ccccc1-3,> 100,> 100,> 100,> 100,> 100,75.2,> 100,> 100,> 100,> 100,> 100,> 100,> 100 µM,> 100,–,–,–,–
O=C(O)C1CCCCN1CCc1c[nH]c2ccccc12 (centres undefined),> 100,> 100,> 100,> 100,> 100,> 100,> 100,> 100,> 100,> 100,> 100,> 100,> 100 µM,> 100,–,–,–,–
CC1(c2nc3ccccc3[nH]2)CCC(CO)C(C)(C)O1 (centres undefined),> 100,> 100,> 100,> 100,> 100,> 100,> 100,> 100,> 100,> 100,> 100,> 100,> 100 µM,> 100,–,–,–,–
CC1C2CC(CC2=O)C1(C)C (centres undefined),> 100,> 100,> 100,> 100,> 100,> 100,> 100,–,> 100,> 100,> 100,> 100,> 100 µM,> 100,> 100,–,–,–
ClCc1nc2cc(Cl)ccc2o1,8.07,> 100,> 25.7,28.2,20,24.1,22.8,16,20.4,14.1,17.4,4.07,5.9 µM,3.24,–,–,–,–
COc1ccc(-c2c(C(=O)Nc3ccccc3)c(-c3ccccc3)n(C3OC(CO)C(O)C(O)C3O)c(=S)c2C#N)cc1 (centres undefined),> 100,> 100,> 100,> 100,> 100,–,> 100,–,> 100,> 100,> 100,> 100,> 100 µM,> 100,> 100,–,–,–
CC(C)(C)OC(=O)N1CCC[C@H]1CSC[C@@H]1CCCN1C(=O)OC(C)(C)C,46.7,84.7,44.8,58.9,> 100,77.2,90.8,40.6,78.5,> 100,38.2,90.3,> 100 µM,> 100,–,–,–,–
NC(=S)NS(=O)(=O)c1ccc(F)cc1,> 100,> 100,> 100,> 100,> 100,> 100,> 100,> 100,> 100,> 100,> 100,> 100,> 100 µM,> 100,–,–,–,–
CCOP(=O)(OCC)OC1CC(n2cnc3c(N(CC)CC)ncnc32)OC1CO[Si](C)(C)C(C)(C)C (centres undefined),31.7,57.6,41.2,29.7,56.4,23.3,32.4,45.6,30.6,28.8,33.1,44.9,43.8 µM,31.5,–,–,–,–
Cc1oc2nc(N(C)C)n3c(C)nnc3c2c1C,> 100,> 100,> 100,> 100,> 100,> 100,> 100,–,> 100,> 100,> 100,–,> 100 µM,> 100,> 100,–,–,–
O=C1Nc2ccccc2/C1=C\c1c(Cl)[nH]c2ccccc12,0.417,7.49,3.44,6.22,8.51,–,17,6.67,–,20,4.12,17.5,1.68 µM,7.77,4.78,–,–,–
COc1ccc2c(c1)CC[C@@H]1C2CC[C@]2(C)C(=O)N(C)C(=O)CC12 (some centres undefined),> 100,> 100,> 100,> 100,> 100,> 100,> 100,–,> 100,> 100,> 100,> 100,> 100 µM,> 100,> 100,–,–,–
COc1cc(-c2c(C(C)=O)c(-c3ccccc3)n(C3OC(COC(C)=O)C(OC(C)=O)C(OC(C)=O)C3OC(C)=O)c(=S)c2C#N)ccc1O (centres undefined),> 100,> 100,> 100,82.4,–,–,> 100,–,> 100,> 100,> 100,> 100,> 100 µM and 79.5 µM,> 100,> 100,> 100 µM and 34.9 µM,44.1 µM and > 100 µM,> 100 µM and 29.6 µM
